Experimental data: US20230158057A1, “COMPOSITIONS AND METHODS FOR THE TREATMENT OF PAIN” (Duke University, priority 2020, published 2023)
“Also recorded” adds a separate entry of the source.

Assays:
DRG nociceptors = test: Whole-cell patch clamp recordings in whole-mount DRGs ex vivo; format: cell-based, mouse; conditions: PTX-treated Ifnar1-WT or Ifnar1-KO mice, ex vivo incubation 30 μM
Protocol: Whole-cell patch clamp recordings in whole-mount DRGs ex vivo: To test the effects of anti-IFNβ neutralizing antibodies, naïve male and female mice were utilized. […] To perform whole-cell patch clamp recordings in whole-mount DRGs, L1-L5 DRGs were carefully isolated and placed in oxygenated ACSF. Using a stereoscope, peripheral and central DRG projections and connective tissue were dissected away. DRGs were lightly digested for 20 minutes using an enzymatic mixture consisting of 0.32 ml collagenase A (1 mg/mL) and Trypsin (0.25%). […] Following incubation, DRGs were transferred to a recording chamber, where neurons could be visualized using a 40× water-immersion objective on an Olympus BX51WI microscope. The recording chamber was continuously perfused (2-3 ml/min) with ACSF. The pipette solution contained 140 mM KC1, 2 mM MgCl2, 10 mM HEPES, 2 mM Mg-ATP at pH 7.4. The resistance of the glass pipettes was 8-10 MΩ. Data were acquired and analyzed using the pClamp10 (Axon Instruments) software.

[1] = tested on: rhesus macaques (Macaca mulatta); test: Menthol gel-induced cold allodynia, cold-water tail-withdrawal assay in non-human primates; format: in vivo
Protocol: Behavioral testing in non-human primates: Five adult rhesus monkeys (Mucaca mulatta, 9.3-13.8 kg) were maintained in an AAALAC-approved facility at Wake Forest University School of Medicine in accordance with Wake Forest University IACUC regulations. Animals were individually housed in temperature- and humidity-controlled species-specific rooms maintained in a 12 h light/12 h dark cycle. All animals have been previously trained in the tail-withdrawal assay. All experimental procedures were conducted in accordance with the Guide for the Care and Use of Laboratory Animals standards adopted by the NIH. Drug infusion was through a previously implanted spinal catheter. Behavioral testing was performed by an experimenter who was blinded to the drug being administered. A cold-water tail-withdrawal assay was used to evaluate nociceptive responses to 16° C. water with a cut-off of 20 sec. 0.3 mL of 2% menthol gel (Millipore Sigma) was applied to the tail for 3 minutes to induce transient and reversible cold allodynia.

[2] = tested on: tumor-infiltrating lymphocytes (TILs); test: Flow cytometry of tumor-infiltrating lymphocytes in bone marrow; format: in vivo, mouse; conditions: 24 h after second injection
Protocol: Flow cytometry. For analysis of immune subsets present within the bone marrow tumor microenvironment, bone marrow was collected as previously described followed by removal of RBC cells using RBC lysis buffer (Sigma, R7757). Cells were subsequently washed with PBS and resuspended in 2% paraformaldehyde in PBS for 10 minutes. Fixed cells were washed several times with PBS, followed by incubation in blocking buffer (1% anti-mouse-CD16/CD32, 2.4 G2, 2% FBS, 5% NRS, 1% triton ×100 and 2% NMS in HBSS; BD Bioscience) for 1 h at room temperature. Cells were subsequently stained with IL-17-FITC (1:20, rat, Miltenyi Biotec, 130-102-262), CD-3 APC/cy7 (1:200, rat, Biolegend, 100221), CD-4 APC (1:200, rat, Biolegend, 100411), FoxP3-PE (1:20, human, Miltenyl Biotec, 130-111-678), CD8a-FITC (1:200, rat, Biolegend, 100705), and CD11b-PE(1:200, rat, Biolegend, 101207) in blocking buffer for 1 h at room temperature. After staining, cells were washed in PBS with EDTA. Flow cytometry events were acquired by a BD FACS Canto II flow cytometer using the BD FACS Diva 8 software (BD Bioscience). Data were analyzed using Cytobank software (https://www.cytobank.org/cytobank).

PINP = test: Serum PINP ELISA; format: in vivo, mouse; conditions: d17
Protocol: ELISA. Mouse high-sensitivity IFN-α ELISA kit (42115-1) and IFN-β ELISA kit (42410-1) were purchased from PBL Assay Science. Mouse CTX-I ELISA kit (AC-06F1) and mouse PINP ELISA kit (AC-33F1) were purchased from Immunodiagnostic Systems. ELISA was performed using culture medium, serum, and bone marrow lysates. Serum was obtained from whole blood that was collected from a submandibular vein via facial vein puncture, coagulated for 30 minutes at room temperature, followed by centrifugation (2,000 ×g for 10 min, 4° C.) and collection of the supernatant (serum). Bone marrow was homogenized in a lysis buffer containing protease inhibitors at 4° C. for 30 minutes. ELISA was conducted in accordance with the manufacturer's instructions. A standard curve was performed for each experiment.

| SMILES | action potential firing of DRG nociceptors (DRG nociceptors) | 2% menthol gel-induced cold allodynia ([1]; i.t. catheter) | intrathecal dose producing analgesia in NHPs ([1]; vs. 35 nmol in murine models) | proportion of CD4^+ T cells in bone marrow [2] | proportion of CD8^+ T cells in bone marrow [2] | proportion of T^reg cells in bone marrow [2] | serum PINP levels (PINP) |
| --- | --- | --- | --- | --- | --- | --- | --- |
| Nc1ncnc2c1ncn2[C@@H]1O[C@@H]2COP(=O)([S-])O[C@@H]3[C@H](O)[C@@H](COP([O-])(=S)O[C@H]2[C@H]1O)O[C@H]3n1cnc2c(N)ncnc21.[Na+].[Na+] (stereo partly drawn) [ADU-S100, (2′-5′)-[P(R)]-5′-O-[(R)-hydroxymercaptophosphinyl]-P-thioadenylyl-adenosine cyclic dinucleotide] | dramatically reduced action potential firing in WT mice, and this effect was abolished in Ifnar1-deficient neurons | long-lasting and dose-dependent analgesia; also recorded: attenuated 2% menthol gel-induced cold allodynia in a dose-dependent manner | 3 nmol | – | – | – | – |
| Cc1ccc2c(=O)c3cccc(CC(=O)O)c3oc2c1C [DMXAA, 2-(5,6-dimethyl-9-oxo-9H-xanthen-4-yl)acetic acid] | – | – | – | without significantly changing the proportion of (CD11b^− CD3^+) CD4^+ T cells | significantly increased the proportion of (CD11b^− CD3^+) CD8^+ T cells | decreased the proportion of T^reg cells | had no effect on serum PINP levels |
